SMILES strings stand for the structures.

For the assay, the target named is Induced myeloid leukemia cell differentiation protein Mcl-1 (Homo sapiens) (UniProt Q07820). The assay is described as follows: Mcl-1/Noxa binding inhibitor potency, dose response, biochemical, TR-FRET (AID 1417). The following applies: Mcl-1/Noxa peptide interaction, cell-free TR-FRET (terbium/rhodamine), 2 h; measured here: absolute IC50.
Chain of Induced myeloid leukemia cell differentiation protein Mcl-1 (Homo sapiens) (Q07820 whole entry, looked up): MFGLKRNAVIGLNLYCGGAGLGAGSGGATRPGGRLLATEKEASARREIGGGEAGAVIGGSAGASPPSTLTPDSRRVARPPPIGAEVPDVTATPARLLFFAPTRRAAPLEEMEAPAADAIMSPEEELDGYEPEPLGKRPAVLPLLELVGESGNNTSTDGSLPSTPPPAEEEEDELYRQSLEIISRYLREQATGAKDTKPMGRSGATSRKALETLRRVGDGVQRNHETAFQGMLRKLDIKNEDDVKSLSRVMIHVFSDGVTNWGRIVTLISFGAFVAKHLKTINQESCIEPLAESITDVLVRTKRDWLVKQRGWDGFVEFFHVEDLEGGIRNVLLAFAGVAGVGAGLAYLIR
On to `N=C1CCC(=N)c2c1c(O)c1ccccc1c2O`, for which the IC50 is > 54 µM.
The value for `CC1=NOC(=O)/C1=C\c1ccc(-c2ccc(Cl)cc2Cl)o1` was < 0.4 µM; that for `CC1=C(C#N)c2nc(N)c(C#N)c(C)c2/C1=C\c1ccc(-c2ccccc2C(=O)O)o1` was 2.98 µM; that for `Cc1sccc1/C=N/NC(=O)c1cccc2ccccc12` was > 54 µM.
Compound `CNc1ccc(Br)cc(C(=O)/C=C/c2cc(OC)ccc2OC)c1=O` registered an IC50 of 1.73 µM.
As for `O=[N+]([O-])c1ccc2c(c1)N([O-])C1(CCCCC1)[N+]2=O`, the IC50 is < 0.4 µM.
With `N=C1/C(=C/c2ccc(-c3cccc(C(=O)O)c3)o2)C(=O)N=C2SC=C(c3ccccc3)N12` the figure was < 0.4 µM; with `CSc1nnc(-c2ccco2)c(-c2ccco2)n1`, 13.2 µM; with `Cc1cc(/C=C2/C(=O)NN(c3ccccc3)C2=O)c(C)n1-c1cccc(O)c1`, 3.25 µM.
For the compound `CCn1cc(C(=O)NCc2ccc3c(c2)OCO3)c2cc(OC)c(OC)cc2c1=O`, the IC50 was > 54 µM.
`CCN(CC)S(=O)(=O)c1ccc(N2CCOCC2)c(NC(=O)c2c3c(nc4ccccc24)CCC3)c1`: the IC50 was 5.73 µM.
With `CN(C)c1ccc(NC(=O)/C=C/c2c(Cl)cccc2Cl)cc1` the figure was > 54 µM.
`COc1ccc2c(c1)c1ccc3c(c1n2C)C(=O)C=CC3=O`: the IC50 was < 0.4 µM.
On to `Cc1nc(COC(=O)c2cc(O)c3ccccc3c2O)cs1`, for which the IC50 is < 0.4 µM.
The value for `O=C(O)c1cc(-c2ccc(/C=C3/SC(=S)N(Cc4ccccc4)C3=O)o2)ccc1Cl` was 1.51 µM; that for `Cc1cc(N=Cc2c(O)ccc3cc(Br)ccc23)no1` was 53.5 µM; that for `Cn1c(N)c(C(=O)COC(=O)c2cc(-c3ccco3)nc3ccccc23)c(=O)n(Cc2ccccc2)c1=O` was < 0.4 µM.
With `Cc1nc(NC(=O)c2ccco2)sc1-c1csc(Nc2ccc(Cl)cc2Cl)n1` the figure was 1.24 µM; with `OCCNc1nc(Nc2ccccc2)nc(Nc2ccccc2)n1`, > 54 µM; with `COc1ccc(C(c2c(O)cc(C)oc2=O)c2c(O)cc(C)oc2=O)cc1`, > 54 µM.
With `CCOc1ccc(N=C2NC(=O)S/C2=C\c2ccc(O)cc2)cc1` the figure was 1.26 µM; with `Cc1cc(-c2nc3c4c5c(sc4[nH]c(=O)n3n2)CCC5)c(C)o1`, < 0.4 µM; with `COc1ccc(N2C(=O)C3CCCN3C2=O)cc1` (stereo not drawn), > 54 µM.
`O=C(CSc1ccsc1[N+](=O)[O-])N1CCN(c2ccc(Cl)cc2)CC1` displayed an IC50 of 5.22 µM.
With `Cc1ccc(/C=C/C(=O)Nc2ccc([N+](=O)[O-])c(NC(=O)/C=C/c3ccc(C)o3)c2)o1` the figure was < 0.4 µM.
For the compound `O=C(O)CC(CCc1ccccc1)OC1OC(CO)C(O)C(O)C1O` (stereo not drawn), the IC50 is < 0.4 µM.
With `COc1cccc(C(=O)Nc2cc(Cl)c(O)c(Cl)c2)c1`, the IC50 was > 54 µM.
For `Cc1ccc(C)c(S(=O)(=O)Nc2cc(SCC(=O)O)c(O)c3ccccc23)c1`, the IC50 is < 0.4 µM.
For `COc1ccccc1Nc1nc(-c2sc(NC(=O)c3ccc([N+](=O)[O-])cc3)nc2C)cs1`, the IC50 is < 0.4 µM.
In turn, `O=C1NC(=S)NC(=O)C1=Cc1cccn1-c1ccc(O)cc1` yielded an IC50 of 3.36 µM.
On to `CNCc1ccccc1OCc1ccccc1F`, for which the IC50 was found to be 5.27 µM.
With `O=C(CN1C(=O)/C(=C2\SC(=S)N(C3CCS(=O)(=O)C3)C2=O)c2ccccc21)Nc1ccccc1` (stereo not drawn) the figure was < 0.4 µM.
For `C=C(C)C(=O)Nc1cccc(C2=NOC3(C2)C[C@H](C(N)=O)N(C(=O)/C=C/C)C3)c1` (stereo partly drawn), the IC50 was determined as 2.94 µM.
The value for `Cc1cc(C(=O)N/N=C/c2ccc(O)c([N+](=O)[O-])c2)c(C)n1-c1ccc(F)cc1` was 2.33 µM; that for `O=C(Nc1ccc2c(c1)nc1n2CCN(C2CCCCC2)C1)c1ccco1` was 9.74 µM.
With `O=C(/C=C\c1ccco1)c1ccc(NC(=O)c2ccco2)cc1` the figure was 3.3 µM; with `CN(C)c1ccc(/C=N/N(Cc2ccccc2)c2ccccc2)cc1`, > 54 µM; with `Cc1cc(SCC(=O)N/N=C/c2ccc(O)c(O)c2O)c(C)cc1Br`, < 0.4 µM.

The record behind these values is PubChem BioAssay AID1417 (Emory University Molecular Libraries Screening Center, 2008).
